Patent US10100284B2, “Method for inducing differentiation of pluripotent stem cells into endodermal cells” (TOAGOSEI CO., LTD., priority 2013, dated 2018)
Where no end group is shown, it is not given here.

Tests used:
[1] = tested on: human-derived iPS cells (clone name: 201B2 or 201B7); experiment: Stem cell differentiation-inducing activity based on iPS cell transformation (optical microscope morphology); conditions: peptide concentration 4.0 μM; eight days after the beginning of culture; FIG. 1; peptide-free group 80% or more black (undifferentiated)
Experimental: The differentiation-inducing activity of a differentiation-inducing synthetic peptide (Sample 1) obtained in Example 1 above was evaluated based on the transformation of iPS cells cultured and passaged in vitro. A peptide-free group was also provided as a comparative example. The details of the evaluation test were as follows.
Cells supplied by the Kyoto University Center for iPS cell Research and Application were used as the human-derived iPS cells in this example (clone name: 201B2 or 201B7, reference source: Takahashi K et al., Cell, 131, 861-872 (2007)). For the feeder cells used in culturing these iPS cells, mouse embryonic fibroblasts (MEF cells) were used to passage (maintain) the iPS cells, while mouse embryonic fibroblasts (cell strain SNL 76/7) supplied under license by the Baylor College of Medicine were used in testing to evaluate the stem cell differentiation-inducing activity of the differentiation-inducing synthetic peptide (Sample 1).
Feeder cells that had been inactivated by mitomycin C treatment were seeded ahead of time on a gelatin-coated 24-well plate 1 to 4 days before seeding of the iPS cells. […]

[2] = tested on: iPS cells (clone name: 201B2 or 201B7); experiment: AFP ELISA of iPS cell culture supernatant; assay type: cell-based, human; conditions: peptide concentration in medium 6 μM; as culture time increased; FIG. 4
Experimental: The stem cell differentiation-inducing activity of the differentiation-inducing synthetic peptide (Sample 1) obtained in Example 1 was evaluated by quantifying changes over time in the expressed amounts (typically extracellular secretion) of AFP and ALB, which are proteins known as markers of differentiation into endodermal cells. It is known that AFP is expressed in cells that have differentiated into liver precursor cells among the endodermal cells, while ALB is expressed in cells that have differentiated sufficiently to function effectively as hepatocytes (that is, hepatocytes or hepatocyte-like cells). […]
200 μL of a substrate solution obtained by mixing 1 volume each of the accessory coloring reagent (A) and coloring reagent (B) was added per well, and left standing for 30 minutes in the dark. […] Absorbance A450 at 450 nm and absorbance A550 at 550 nm were then measured with a spectrophotometer in the reaction liquid in the wells.
Absorbance values A(450-550) were calculated by subtracting the absorbance A550 from the absorbance A450 obtained by the previous measurement (that is, absorbance A(450-550)=[…]) for each of the samples from the AFP evaluation test group and ALB evaluation test group. […]

LLLLLLVGLTAPAGKKRTLRKNDRKKR-CONH2 (LLLLLLVGLTAPAGKKRTLRKNDRKKR-NH2) [Sample 1]
part of microscope field appearing white (occupied by colonies of differentiated iPS cells) [1]: ≥ 80% | AFP level of the culture supernatant in comparison with peptide-free group with the same culture time [2]: increased dramatically
